Like-named read-outs stand apart in the source and are kept apart here.
Assays:
[1] = biological target: broad panel of kinases (Homo sapiens, UniProt Q00532); type: binding; details: CDKL1; 1 μM
[2] = biological target: broad panel of kinases (Homo sapiens, UniProt P08581, M1250T); type: binding; details: MET(M1250T); 1 μM
[3] = biological target: broad panel of kinases (Homo sapiens, UniProt P78356); type: binding; details: PIP5K2B; 1 μM
[4] = biological target: broad panel of kinases (Homo sapiens, UniProt Q8WU08); type: binding; details: YANK1; 1 μM
Sequence of broad panel of kinases (Homo sapiens, UniProt Q8WU08) (Q8WU08 2-396 limits assumed): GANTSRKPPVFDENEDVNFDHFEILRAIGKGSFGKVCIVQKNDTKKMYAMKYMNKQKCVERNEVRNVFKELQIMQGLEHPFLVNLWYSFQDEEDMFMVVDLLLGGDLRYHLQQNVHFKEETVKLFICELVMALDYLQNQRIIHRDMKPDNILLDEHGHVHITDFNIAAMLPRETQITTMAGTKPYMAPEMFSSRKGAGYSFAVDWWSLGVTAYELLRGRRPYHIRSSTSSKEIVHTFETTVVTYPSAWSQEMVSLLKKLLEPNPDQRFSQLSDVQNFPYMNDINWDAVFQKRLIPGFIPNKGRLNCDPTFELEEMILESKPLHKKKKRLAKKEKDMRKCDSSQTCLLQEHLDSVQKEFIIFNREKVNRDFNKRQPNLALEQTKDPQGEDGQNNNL

[5] = biological target: broad panel of kinases (Homo sapiens, UniProt P49841); type: binding; details: GSK3B; 1 μM
[6] = biological target: broad panel of kinases (Homo sapiens, UniProt O94804); type: binding; details: LOK; 1 μM
[7] = biological target: broad panel of kinases (Homo sapiens, UniProt Q8NI60); type: binding; details: ADCK3; 1 μM
Sequence of broad panel of kinases (Homo sapiens, UniProt Q8NI60) (Q8NI60 163-647 limits assumed): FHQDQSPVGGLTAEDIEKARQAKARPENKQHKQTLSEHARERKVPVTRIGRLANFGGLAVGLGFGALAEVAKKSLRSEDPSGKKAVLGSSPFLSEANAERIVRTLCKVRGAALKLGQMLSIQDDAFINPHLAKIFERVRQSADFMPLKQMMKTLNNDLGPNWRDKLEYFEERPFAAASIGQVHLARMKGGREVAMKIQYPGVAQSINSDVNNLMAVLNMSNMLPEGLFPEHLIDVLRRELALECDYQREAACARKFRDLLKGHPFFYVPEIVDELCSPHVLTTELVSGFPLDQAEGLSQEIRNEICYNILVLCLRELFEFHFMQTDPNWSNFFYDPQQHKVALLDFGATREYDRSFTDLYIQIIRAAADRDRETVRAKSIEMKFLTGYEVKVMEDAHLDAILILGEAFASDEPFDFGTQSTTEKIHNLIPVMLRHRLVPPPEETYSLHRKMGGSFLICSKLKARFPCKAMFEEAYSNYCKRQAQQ

[8] = biological target: broad panel of kinases (Homo sapiens, UniProt Q16584); type: binding; details: MLK3; 1 μM
[9] = biological target: broad panel of kinases (Homo sapiens, UniProt Q08345); type: binding; details: DDR1; 1 μM
[10] = biological target: broad panel of kinases (Homo sapiens, UniProt O14936); type: binding; details: CASK; 1 μM
[11] = biological target: broad panel of kinases (Homo sapiens, UniProt Q9P286); type: binding; details: PAK7; 1 μM
[12] = biological target: broad panel of kinases (Homo sapiens, UniProt Q13043); type: binding; details: MST1; 1 μM
[13] = biological target: broad panel of kinases (Homo sapiens, UniProt P24941); type: binding; details: CDK2; 1 μM
[14] = biological target: broad panel of kinases (Homo sapiens, UniProt Q9NY57); type: binding; details: YANK2; 1 μM
[15] = biological target: broad panel of kinases (Homo sapiens, UniProt P00533, L858R/T790M); type: binding; details: EGFR(L858R, T790M); 1 μM
Sequence of broad panel of kinases (Homo sapiens, UniProt P00533, L858R/T790M) (P00533 25-1210 T790M/L858R limits assumed): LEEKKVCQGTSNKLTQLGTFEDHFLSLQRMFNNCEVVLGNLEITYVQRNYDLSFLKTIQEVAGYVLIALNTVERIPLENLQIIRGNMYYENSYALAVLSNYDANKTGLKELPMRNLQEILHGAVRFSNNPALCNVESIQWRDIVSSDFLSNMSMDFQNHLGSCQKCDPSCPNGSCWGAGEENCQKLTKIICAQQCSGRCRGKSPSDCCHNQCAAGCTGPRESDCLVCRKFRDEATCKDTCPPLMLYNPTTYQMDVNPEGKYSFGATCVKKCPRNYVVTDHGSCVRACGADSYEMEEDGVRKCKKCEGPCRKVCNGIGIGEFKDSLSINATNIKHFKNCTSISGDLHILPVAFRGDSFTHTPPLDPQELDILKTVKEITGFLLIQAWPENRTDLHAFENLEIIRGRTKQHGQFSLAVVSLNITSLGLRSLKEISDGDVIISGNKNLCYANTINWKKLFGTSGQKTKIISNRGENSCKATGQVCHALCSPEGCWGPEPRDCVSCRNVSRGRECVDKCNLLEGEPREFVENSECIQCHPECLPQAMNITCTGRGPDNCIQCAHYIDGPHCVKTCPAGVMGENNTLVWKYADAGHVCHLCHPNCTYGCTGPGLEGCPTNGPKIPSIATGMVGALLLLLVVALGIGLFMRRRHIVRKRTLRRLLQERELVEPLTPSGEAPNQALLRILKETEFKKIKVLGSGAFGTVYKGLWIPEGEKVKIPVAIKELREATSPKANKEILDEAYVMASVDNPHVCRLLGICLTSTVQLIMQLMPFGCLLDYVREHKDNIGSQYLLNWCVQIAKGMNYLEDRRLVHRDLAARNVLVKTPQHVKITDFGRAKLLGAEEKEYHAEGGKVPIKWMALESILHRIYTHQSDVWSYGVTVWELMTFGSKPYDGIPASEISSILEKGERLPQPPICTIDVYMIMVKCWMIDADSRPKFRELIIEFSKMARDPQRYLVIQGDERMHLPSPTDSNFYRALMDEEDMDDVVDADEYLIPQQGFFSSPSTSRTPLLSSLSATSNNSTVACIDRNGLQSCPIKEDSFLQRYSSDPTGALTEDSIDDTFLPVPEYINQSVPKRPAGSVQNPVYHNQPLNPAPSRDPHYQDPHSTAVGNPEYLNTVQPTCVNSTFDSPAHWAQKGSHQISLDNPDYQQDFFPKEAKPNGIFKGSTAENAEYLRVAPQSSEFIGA

[16] = biological target: broad panel of kinases (Homo sapiens, UniProt Q07002); type: binding; details: PCTK3; 1 μM
[17] = biological target: broad panel of kinases (Homo sapiens, UniProt P00519, Q252H); type: binding; details: 1 μM
[18] = biological target: broad panel of kinases (Homo sapiens, UniProt P68400); type: binding; details: CSNK2A1; 1 μM
[19] = biological target: broad panel of kinases (Homo sapiens, UniProt Q16659); type: binding; details: ERK3; 1 μM
[20] = biological target: broad panel of kinases (Homo sapiens, UniProt O15146); type: binding; details: MUSK; 1 μM
Sequence of broad panel of kinases (Homo sapiens, UniProt O15146) (O15146 24-869 limits assumed): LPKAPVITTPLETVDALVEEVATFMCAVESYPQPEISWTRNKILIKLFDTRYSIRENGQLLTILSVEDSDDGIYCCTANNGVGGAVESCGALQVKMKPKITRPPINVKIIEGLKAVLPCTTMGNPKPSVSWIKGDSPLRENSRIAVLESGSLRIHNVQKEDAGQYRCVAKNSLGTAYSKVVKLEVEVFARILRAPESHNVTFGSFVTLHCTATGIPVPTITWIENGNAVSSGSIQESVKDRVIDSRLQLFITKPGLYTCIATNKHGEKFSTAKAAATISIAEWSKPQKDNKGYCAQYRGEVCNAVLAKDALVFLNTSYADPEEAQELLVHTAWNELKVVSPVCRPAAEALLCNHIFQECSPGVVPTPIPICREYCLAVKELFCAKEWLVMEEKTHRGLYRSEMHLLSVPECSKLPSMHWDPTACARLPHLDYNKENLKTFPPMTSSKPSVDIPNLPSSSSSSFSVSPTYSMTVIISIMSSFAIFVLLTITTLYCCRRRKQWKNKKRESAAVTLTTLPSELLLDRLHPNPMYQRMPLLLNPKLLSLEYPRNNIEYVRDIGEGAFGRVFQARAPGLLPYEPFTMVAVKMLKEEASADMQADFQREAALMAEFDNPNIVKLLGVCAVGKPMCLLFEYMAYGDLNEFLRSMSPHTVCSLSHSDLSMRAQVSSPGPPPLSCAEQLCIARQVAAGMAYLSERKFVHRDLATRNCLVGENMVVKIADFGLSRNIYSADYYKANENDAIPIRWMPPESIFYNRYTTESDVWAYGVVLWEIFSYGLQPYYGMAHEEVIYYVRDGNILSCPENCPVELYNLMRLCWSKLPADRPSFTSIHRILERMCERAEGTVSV

[21] = biological target: broad panel of kinases (Homo sapiens, UniProt Q6P3R8); type: binding; details: NEK5; 1 μM
[22] = biological target: broad panel of kinases (Homo sapiens, UniProt Q6ZWH5); type: binding; details: NEK10; 1 μM
[23] = biological target: kinases in BCWM.1 cells (Homo sapiens, UniProt Q9UBS0); type: cell-based; details: p70S6Kb; Lys2; 1 μM, 90 min; GF
Procedure: (§1) The cells were harvested and lysed. […] Bound kinases were identified and quantitated by ACTIVX as described in Patricelli et al., Biochemistry, 2007, 46(2): 350-358. The compounds were tested in duplicates against duplicate or quadruplicate control samples.

[24] = biological target: kinases in BCWM.1 cells (Homo sapiens, UniProt P43405); type: cell-based; details: SYK; Activation Loop; 1 μM, 90 min; GF
Procedure: as §1

[25] = biological target: kinases in BCWM.1 cells (Homo sapiens, UniProt P48736); type: cell-based; details: PIK3CG; ATP; 1 μM, 90 min; GF
Procedure: as §1

[26] = biological target: kinases in BCWM.1 cells (Homo sapiens, UniProt Q96SB4); type: cell-based; details: SRPK1; Lys2; 1 μM, 90 min; GF
Procedure: as §1

[27] = biological target: kinases in BCWM.1 cells (Homo sapiens, UniProt P04049); type: cell-based; details: RAF1; Lys2; 1 μM, 90 min; GF
Procedure: as §1

[28] = biological target: kinases in BCWM.1 cells (Homo sapiens, UniProt Q96PY6); type: cell-based; details: NEK1; Lys2; 1 μM, 90 min; GF
Procedure: as §1

[29] = biological target: kinases in BCWM.1 cells (Homo sapiens, UniProt Q86SG6); type: cell-based; details: NEK8; Lys2; 1 μM, 90 min; GF
Procedure: as §1

[30] = biological target: kinases in BCWM.1 cells (Homo sapiens, UniProt Q96S38); type: cell-based; details: RSKL1; ATP; 1 μM, 90 min; GF
Procedure: as §1

[31] = biological target: kinases in BCWM.1 cells (Homo sapiens, UniProt Q6PHR2); type: cell-based; details: ULK3; Lys2; 1 μM, 90 min; GF
Procedure: as §1

[32] = biological target: kinases in BCWM.1 cells (Homo sapiens, UniProt Q9NRH2); type: cell-based; details: SNRK; Lys2; 1 μM, 90 min; GF
Procedure: as §1

[33] = biological target: kinases in BCWM.1 cells (Homo sapiens, UniProt Q7RTN6); type: cell-based; details: STLK5; Activation Loop; 1 μM, 90 min; GF
Procedure: as §1

Sequence of broad panel of kinases (Homo sapiens, UniProt P08581, M1250T) (P08581 25-1390 M1250T limits assumed): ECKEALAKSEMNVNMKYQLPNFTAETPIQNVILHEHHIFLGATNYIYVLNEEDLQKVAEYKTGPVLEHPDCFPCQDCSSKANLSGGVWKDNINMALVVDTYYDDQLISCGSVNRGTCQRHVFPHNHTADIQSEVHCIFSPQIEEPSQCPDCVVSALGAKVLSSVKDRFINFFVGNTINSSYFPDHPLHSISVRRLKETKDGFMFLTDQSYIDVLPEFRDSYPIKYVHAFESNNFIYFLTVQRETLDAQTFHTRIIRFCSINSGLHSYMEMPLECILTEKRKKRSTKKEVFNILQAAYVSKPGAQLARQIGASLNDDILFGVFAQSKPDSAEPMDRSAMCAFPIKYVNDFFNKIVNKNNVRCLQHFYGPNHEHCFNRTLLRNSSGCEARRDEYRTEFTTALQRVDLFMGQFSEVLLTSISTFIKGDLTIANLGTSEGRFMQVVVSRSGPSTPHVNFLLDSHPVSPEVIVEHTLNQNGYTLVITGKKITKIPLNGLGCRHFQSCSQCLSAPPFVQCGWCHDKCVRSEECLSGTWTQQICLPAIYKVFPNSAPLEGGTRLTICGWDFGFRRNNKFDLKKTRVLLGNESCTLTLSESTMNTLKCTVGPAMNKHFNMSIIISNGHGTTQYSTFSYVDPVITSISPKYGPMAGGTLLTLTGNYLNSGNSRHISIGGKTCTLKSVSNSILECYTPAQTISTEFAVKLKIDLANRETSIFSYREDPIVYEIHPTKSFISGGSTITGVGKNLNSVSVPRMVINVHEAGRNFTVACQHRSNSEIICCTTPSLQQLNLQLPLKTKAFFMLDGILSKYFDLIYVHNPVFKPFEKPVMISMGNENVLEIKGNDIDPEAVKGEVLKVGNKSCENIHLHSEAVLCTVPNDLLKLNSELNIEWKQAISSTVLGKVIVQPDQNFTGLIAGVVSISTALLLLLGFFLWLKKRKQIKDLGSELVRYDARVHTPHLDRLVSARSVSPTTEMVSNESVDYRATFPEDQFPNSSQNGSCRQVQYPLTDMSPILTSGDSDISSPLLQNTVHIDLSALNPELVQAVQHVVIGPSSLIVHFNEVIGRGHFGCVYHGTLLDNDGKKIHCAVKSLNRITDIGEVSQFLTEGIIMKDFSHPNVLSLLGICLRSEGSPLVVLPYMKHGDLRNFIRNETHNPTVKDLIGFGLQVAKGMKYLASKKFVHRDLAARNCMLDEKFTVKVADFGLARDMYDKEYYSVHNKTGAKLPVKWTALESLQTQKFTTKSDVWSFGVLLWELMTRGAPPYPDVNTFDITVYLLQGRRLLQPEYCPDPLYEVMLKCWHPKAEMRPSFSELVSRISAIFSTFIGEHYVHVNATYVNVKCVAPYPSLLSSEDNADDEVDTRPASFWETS
Sequence of broad panel of kinases (Homo sapiens, UniProt P78356) (P78356 2-416 limits assumed): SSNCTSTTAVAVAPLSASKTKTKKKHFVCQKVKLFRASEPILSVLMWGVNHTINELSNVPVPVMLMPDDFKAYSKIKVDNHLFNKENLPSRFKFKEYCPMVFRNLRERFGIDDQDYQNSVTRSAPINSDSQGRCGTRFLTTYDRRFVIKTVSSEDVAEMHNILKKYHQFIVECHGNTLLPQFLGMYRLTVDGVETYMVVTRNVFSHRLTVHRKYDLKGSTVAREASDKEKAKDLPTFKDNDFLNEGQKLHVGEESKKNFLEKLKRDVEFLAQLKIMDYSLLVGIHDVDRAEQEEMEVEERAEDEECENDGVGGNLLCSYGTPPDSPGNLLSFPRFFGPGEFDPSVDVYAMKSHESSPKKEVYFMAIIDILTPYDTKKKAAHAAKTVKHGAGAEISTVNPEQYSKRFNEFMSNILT

SMILES | percent of control binding remaining (lower = stronger binding) [1] | percent of control binding remaining (lower = stronger binding) [2] | percent of control binding remaining (lower = stronger binding) [3] | percent of control binding remaining (lower = stronger binding) [4] | percent of control binding remaining (lower = stronger binding) [5] | percent of control binding remaining (lower = stronger binding) [6] | percent of control binding remaining (lower = stronger binding) [7] | percent of control binding remaining (lower = stronger binding) [8] | percent of control binding remaining (lower = stronger binding) [9] | percent of control binding remaining (lower = stronger binding) [10] | percent of control binding remaining (lower = stronger binding) [11] | percent of control binding remaining (lower = stronger binding) [12] | percent of control binding remaining (lower = stronger binding) [13] | percent of control binding remaining (lower = stronger binding) [14] | percent of control binding remaining (lower = stronger binding) [15] | percent of control binding remaining (lower = stronger binding) [16] | percent of control binding remaining (lower = stronger binding) [18] | percent of control binding remaining (lower = stronger binding) [19] | percent of control binding remaining (lower = stronger binding) [20] | percent of control binding remaining (lower = stronger binding) [21] | also measured
C=CC(=O)N1CC[C@H](Nc2nccc(Nc3ncc(C(=O)Nc4c(C)cccc4C)s3)n2)C1 [Example I-3] | 93% | 100% | 100% | 84% | 100% | 97% | 49% | 85% | 0.15% | 98% | 97% | 97% | 100% | 96% | 42% | 92% | 98% | 89% | 100% | 87% | % change compared to control ([17]; ABL1(Q252H)-nonphosphorylated): 0.15%; % change compared to control ([17]; ABL1(Q252H)-phosphorylated): 0.3%; percent of control binding remaining (lower = stronger binding) [22]: 90%; % change of MS signal compared to control sample [23]: 6.8%; % change of MS signal compared to control sample [24]: −1.1%; % change of MS signal compared to control sample [25]: −3.4%; % change of MS signal compared to control sample [26]: −16.8%; % change of MS signal compared to control sample [27]: 9.9%; % change of MS signal compared to control sample [28]: −7.6%; % change of MS signal compared to control sample [29]: −14.5%; % change of MS signal compared to control sample [30]: −25.8%; % change of MS signal compared to control sample [31]: −47.2%; % change of MS signal compared to control sample [32]: 40.2%; % change of MS signal compared to control sample [33]: −17.7%
C=CC(=O)N1CC[C@H](Nc2nc(CN3CCOCC3)cc(Nc3ncc(C(=O)Nc4c(C)cccc4C)s3)n2)C1 [Example I-2] | 100% | 100% | 98% | 100% | 100% | 96% | 9.2% | 100% | 0.2% | 100% | 96% | 100% | 100% | 100% | 48% | 99% | 90% | 100% | 98% | 96% | percent of control binding remaining (lower = stronger binding) ([17]; ABL1(Q252H)-nonphosphorylated): 0.3%; percent of control binding remaining (lower = stronger binding) ([17]; ABL1(Q252H)-phosphorylated): 0.25%; percent of control binding remaining (lower = stronger binding) [22]: 93%
CCC(=O)N1CC[C@H](Nc2nccc(Nc3ncc(C(=O)Nc4c(C)cccc4C)s3)n2)C1 [Example I-9] |  |  |  |  |  |  |  |  |  |  |  |  |  |  |  |  |  |  |  |  | % change of MS signal compared to control sample [23]: 3.1%; % change of MS signal compared to control sample [24]: −6.1%; % change of MS signal compared to control sample [25]: −9.6%; % change of MS signal compared to control sample [26]: −0.4%; % change of MS signal compared to control sample [27]: −9.2%; % change of MS signal compared to control sample [28]: 4.6%; % change of MS signal compared to control sample [29]: −5.8%; % change of MS signal compared to control sample [30]: 1.8%; % change of MS signal compared to control sample [31]: −9.6%; % change of MS signal compared to control sample [32]: 30.1%; % change of MS signal compared to control sample [33]: −9.4%
